Usually ED50 stands for the dose at which the effect has come halfway, by size or by number of responders.

Each structure is given as a SMILES string. Structures can show the parent of a compound that is named as a salt.

This experiment deals with KCN-induced lethality. The experiment can be described thus: KCN Test in Rats (protection from KCN induced lethality). It is filed as in vivo. Conditions: Rattus norvegicus, sc; male Wistar rats, subcutaneous, one hour before KCN 5 mg/kg i.v.; survival after 2 minutes; read-out: ED50-values (protecting 50% of the tested animals against KCN-induced lethality).
For the molecule `CN(c1nc2ccccc2o1)C1CCN(CC(O)COc2ccc(F)cc2)CC1` (stereo not shown) [Compound 323], the ED50 turned out to be 1.25 mg/kg.
Turning to `CN(c1nc2ccccc2o1)C1CCN(CCc2ccccn2)CC1` [Compound 452, N-methyl-N-[1-[2-(2-pyridinyl)ethyl]-4-piperidinyl]-2-benzoxazolamine], the 50% effective dose (ED50) came to 5 mg/kg.
As to `CN(c1nc2ccccc2s1)C1CCN(CC(O)C2CCc3ccccc3O2)CC1` (stereo not drawn) [Compound 438, (A^-)-4-[(2-benzothiazolyl)methylamino]-α-(3,4-dihydro-2H-1-benzopyran-2-yl)-1-piperidineethanol], the ED50 came out at 10 mg/kg.
For the molecule `COc1ccc(OCCCN2CCC(N(C)c3nc4ccccc4s3)CC2)cc1` [Compound 24], the 50% effective dose (ED50) came to 5 mg/kg.
For `CN(c1nc2ccccc2o1)C1CCN(C2CCCCC2)CC1` [Compound 309], the ED50 amounted to 5 mg/kg.
Under `CN(c1nc2ccccc2s1)C1CCN(CCCOc2ccccc2F)CC1` [Compound 18] stands 5 mg/kg.
Consider `CN(c1nc2ccccc2s1)C1CCN(C[C@H](O)COc2ccc(F)cc2)CC1` [Compound 411, (-)-(S)-4-[(2-benzothiazolyl)methylamino]-α-[(4-fluorophenoxy)methyl]-1-piperidineethanol dihydrochloride], for which the ED50 stood at 5 mg/kg.
Consider `CCCCN1CCC(N(C)c2nc3ccccc3o2)CC1` [Compound 103], for which the ED50 amounted to 5 mg/kg.
With `Cc1cccc(OCCCN2CCC(N(C)c3nc4ccccc4s3)C2)c1.O=C(O)C(=O)O` (stereo not shown) [Compound 120, N-methyl-N-[1-[3-(3-methylphenoxy)propyl]-3-pyrrolidinyl]-2-benzothiazolamine ethanedioate(1:1)], the ED50 is 2.5 mg/kg.
Consider `CN(c1nc2ccccc2s1)C1CCN(CCCOc2ccc([N+](=O)[O-])cc2)CC1` [Compound 151], for which the ED50 is 5 mg/kg.
Turning to `CN(c1nc2ccccc2s1)C1CCN(CC(O)C2COc3ccccc3O2)CC1` (single isomer, unassigned) [Compound 415, (A)-4-[(2-benzothiazolyl)methylamino]-α-(2,3-dihydro-1,4-benzodioxin-2-yl)-1-piperidineethanol], the ED50 was 10 mg/kg.
Under `CN(c1nc2ccccc2s1)C1CCN(CCCCOc2ccc(F)cc2)CC1` [Compound 11] stands 1.25 mg/kg; under `CN(c1nc2ccccc2o1)C1CCN(CC(O)C2COc3ccccc3O2)CC1` (single isomer, unassigned) [Compound 413, (A)-4-[(2-benzoxazolyl)methylamino]-α-(2,3-dihydro-1,4-benzodioxin-2-yl)-1-piperidineethanol], 5 mg/kg.
`CN(c1nc2ccccc2s1)C1CCN(CC(O)COc2ccc(F)cc2)C1` (stereo not drawn) [Compound 405, 3-[(2-benzothiazolyl)methylamino]-α-[(4-fluorophenoxy)methyl]-1-pyrrolidineethanol 4-methylbenzenesulfonate(1:2)]: the ED50 came to 10 mg/kg.
Under `CN(c1nc2ccccc2s1)C1CCN(CCCCOc2ccc(F)cc2)C1` (stereo not shown) [Compound 118, N-[1-[4-(4-fluorophenoxy)butyl]-3-pyrrolidinyl]-N-methyl-2-benzothiazolamine dihydrochloride.monohydrate] stands 5 mg/kg.
Under `CN(c1nc2ccccc2s1)C1CCN(CC(O)CSc2ccccc2)CC1` (stereo not drawn) [Compound 440, 4-[(2-benzothiazolyl)methylamino]-α-[(phenylthio)methyl]-1-piperidineethanol (Z)-2-butenedioate(1:1)] stands 10 mg/kg.
With `CN(c1nc2ccccc2s1)C1CCN(C[C@@H](O)COc2ccc(F)cc2)CC1` [Compound 410, (+)-(R)-4-[(2-benzothiazolyl)methylamino]-α-[(4-fluorophenoxy)methyl]-1-piperidineethanol dihydrochloride], the ED50 was found to be 5 mg/kg.
As for `CN(c1nc2ccccc2s1)C1CCN(CCCCCOc2ccc(F)cc2)CC1` [Compound 32], the ED50 turned out to be 5 mg/kg.
For `CN(c1nc2ccccc2s1)C1CCN(CC=Cc2ccccc2)CC1` [Compound 133], the ED50 was found to be 5 mg/kg.
Under `CN(c1nc2ccccc2s1)C1CCN(CCCCOc2ccc(Br)cc2)CC1` [Compound 42] stands 2.5 mg/kg; under `CN(c1nc2ccccc2s1)C1CCN(CC(O)COc2ccc(F)cc2)CC1` (stereo not drawn) [Compound 320, 4-[(2-benzothiazolyl)methylamino]-α-[(4-fluorophenoxy)methyl]-1-piperidineethanol monohydrochloride], 1.8 mg/kg.
For the molecule `CN(c1nc2ccccc2o1)C1CCN(CC(O)CSc2ccccc2)CC1` (stereo not drawn) [Compound 446, 4-[(2-benzoxazolyl)methylamino]-α-[(phenylthio)methyl]-1-piperidineethanol (E)-2-butenedioate(2:1)], the ED50 was determined as 10 mg/kg.
Under `CCN(c1nc2ccccc2s1)C1CCN(CCCOc2ccc(C)cc2)CC1` [Compound 123, N-ethyl-N-[1-[3-(4-methylphenoxy)propyl]-4-piperidinyl]-2-benzothiazolamine] stands 5 mg/kg.
Regarding `C(=Cc1ccccc1)CN1CCC(Nc2nc3ccccc3o2)CC1` [Compound 107], the ED50 is 2.5 mg/kg.
Turning to `C[C@@H]1CN(CCCCOc2ccccc2)CC[C@@H]1N(C)c1nc2ccccc2s1` (relative stereo) [Compound 75], the ED50 came to 10 mg/kg.
As for `CN(c1nc2ccccc2o1)C1CCN(CC(O)COc2ccc(Cl)cc2)CC1` (stereo not shown) [Compound 324], the ED50 was 2.5 mg/kg.
Turning to `CN(c1nc2ccccc2s1)C1CCN(CCCCCOc2cccc(Cl)c2)CC1` [Compound 191], the ED50 worked out at 2.5 mg/kg.
With `CN(c1nc2ccccc2s1)C1CCN(CC(O)CSc2ccc(F)cc2)CC1` (stereo not drawn) [Compound 442, 4-[(2-benzothiazolyl)methylamino]-α-[[(4-fluorophenyl)thio]methyl]-1-piperdineethanol (Z)-2-butenedioate(1:1)], the ED50 was 2.5 mg/kg.
As to `Cc1cccc(OCCCN2CCC(N(C)c3nc4ccccc4o3)CC2)c1` [Compound 48], the ED50 turned out to be 1.25 mg/kg.
For `CN(c1nc2ccccc2s1)C1CCN(CCCCOc2ccccc2)CC1` [Compound 10], the ED50 is 5 mg/kg.
Under `CN(c1nc2ccccc2o1)C1CCN(CC(O)COc2ccccc2)CC1` (stereo not shown) [Compound 322] stands 5 mg/kg; under `CN(c1nc2ccccc2s1)C1CCN(CCCCOc2cccc(Cl)c2)CC1.O=C(O)/C=C\C(=O)O` [Compound 1, N-[1-[4-(3-chlorophenoxy)butyl]-4-piperidinyl]-N-methyl-2-benzothiazolamine (Z)-2-butenedioate (1:1)], 5 mg/kg; under `CN(c1nc2ccccc2s1)C1CCN(CCCOc2ccc(F)cc2)CC1` [Compound 146], 5 mg/kg.
For `CN(c1nc2ccccc2o1)C1CCN(CCCOc2cccc(F)c2)CC1` [Compound 195], the ED50 stood at 1.25 mg/kg.
With `COc1ccc(OCCCCN2CCC(N(C)c3nc4ccccc4s3)CC2)cc1` [Compound 31] the figure was 5 mg/kg; with `CN(c1nc2ccccc2o1)C1CCN(CCCCOc2ccc(Cl)cc2)CC1` [Compound 15], 0.63 mg/kg.
For `CCN(c1nc2ccccc2s1)C1CCN(CC(O)COc2ccc(Cl)cc2)CC1` (stereo not shown) [Compound 357], the ED50 amounted to 0.63 mg/kg.
Consider `CN(c1nc2ccccc2s1)C1CCN(CC(O)CSc2ccc(Cl)cc2)CC1` (stereo not drawn) [Compound 443, 4-[(2-benzothiazolyl)methylamino]-α-[[(4-chlorophenyl)thio]methyl]-1-piperidineethanol (Z)-2-butenedioate(1:1)], for which the median effective dose (ED50) was found to be 10 mg/kg.
Regarding `CN(c1nc2ccccc2s1)C1CCN(CCCOc2ccc3ccccc3c2)CC1` [Compound 148], the ED50 stood at 5 mg/kg.
Take `CN(c1nc2ccccc2s1)C1CCN(CCCOc2cccc(F)c2)C1.O=C(O)C(=O)O` (stereo not shown) [Compound 121, N-[1-[3-(3-fluorophenoxy)propyl]-3-pyrrolidinyl]-N-methyl-2-benzothiazolamine ethanedioate(1:1)]: the ED50 worked out at 2.5 mg/kg.
For `CN(c1nc2ccccc2s1)C1CCN(CCCCCc2ccccc2)CC1` [Compound 108], the ED50 came to 5 mg/kg.
In the case of `CN(c1nc2ccccc2s1)C1CCN(CCCOc2cccc(F)c2)CC1` [Compound 9], the ED50 was 2.5 mg/kg.
For `COc1ccccc1OCCCCCN1CCC(N(C)c2nc3ccccc3s2)CC1` [Compound 50], the 50% effective dose (ED50) is 2.5 mg/kg.

(Values after patent publication US4861785A (priority 1985, dated 1989).)
